Structures can show the parent of a compound that is named as a salt.

For one experiment, the system named is Frataxin (FXN) mRNA. The experiment in a line: Effect of HDAC inhibitors on frataxin (FXN) mRNA expression, qRT-PCR in compound-treated iPSC derived neuronal cells. It counts as cell-based. Particulars: iPSC, 24 h, compound concentration of 0.625 μM, 24 h incubation, read-out: FXN mRNA fold induction. As for the experimental part:
Effect of HDAC Inhibitors on Frataxin (FXN) mRNA Expression
Method: mRNA quantification of compound-treated iPSC derived neuronal cells Neuronal stem cells were cultured in Neurobasal A medium (Life technologies #10888022) supplemented with N2, B27 (Life technologies #17502-048 and #17504-044), L-glutamine (Life technologies #25030081), supplemented with 20 ng/ml EGF (R&D Systems #236-EG) and 20 ng/ml bFGF (BioPioneer # HRP-0011). Neuronal differentiation was initiated by removing growth factors and culturing cells in Neurobasal A with N2 and B27. Cells were allowed to differentiate for 16 days. HDAC inhibitory compound was then added and incubate for 24 h. RNA isolation was performed using the RNeasy Plus mini kit (QIAgen #74134) using a QIAcube instrument per manufacturer's instructions. qRT-PCR was performed using qScript One-Step SYBR Green qRT-PCR Kit (Quanta Biosciences 170-8893BR) with the following conditions: 20 minutes at 50° C., 5 minutes at 95° C., and then 40 cycles of 20 seconds at 95° C., 20 seconds at 55° C., 30 seconds at 72° C. The primer sequences to detect expression of FXN were: 5′-[…]-3′ and 5′-[…]-3′.
The data for the following compounds, for FXN mRNA fold induction at a compound concentration of 0.625 μM are shown in Table 1, where A<1, 1<B<2, 2<C<3, 3<D<5, E>5.
A general note: Quantitative PCR measures a nucleic acid by following its amplification.
For `Nc1ccccc1NC(=O)c1ccc(O[C@H]2CCN(C3CC3)C2)cc1` [Compound 127, (S)-N-(2-aminophenyl)-4-((1-cyclopropylpyrrolidin-3-yl)oxy)benzamide dihydrochloride], the fold induction at 0.625 µM was 1 to 2.

Consider `Nc1ccccc1NC(=O)c1ccc(OC2CC3CCC(C2)N3)cc1` (stereo not drawn) [Compound 70, 4-((8-azabicyclo[3.2.1]octan-3-yl)oxy)-N-(2-aminophenyl)benzamide hydrochloride], for which the fold induction at 0.625 µM was 1 to 2.

As to `Nc1ccccc1NC(=O)c1ccc(O[C@H]2CCN(CC3CCCCC3)C2)cc1` [Compound 56, (S)-N-(2-aminophenyl)-4-((1-(cyclohexylmethyl)pyrrolidin-3-yl)oxy)benzamide dihydrochloride], the fold induction at 0.625 µM is 2 to 3.

Consider `Nc1ccccc1NC(=O)c1ccc(NC2CCCNCC2)cc1` (stereo not drawn) [Compound 78, N-(2-aminophenyl)-4-(azepan-4-ylamino)benzamide tris(2,2,2-trifluoroacetate)], for which the fold induction at 0.625 µM was in the range of 2 to 3.

As for `Nc1ccccc1NC(=O)c1ccc(NC2CCN(CC34CC5CC(CC(C5)C3)C4)CC2)cc1` [Compound 142, 4-((1-(((3r,5r,7r)-adamantan-1-yl)methyl)piperidin-4-yl)amino)-N-(2-aminophenyl)benzamide trihydrochloride], the fold induction at 0.625 µM was in the range of 2 to 3.

On to `CC(C)(O)CN1CCC(Nc2ccc(C(=O)Nc3ccccc3N)cc2)CC1` [Compound 4, N-(2-aminophenyl)-4-((1-(2-hydroxy-2-methylpropyl)piperidin-4-yl)amino)benzamide], for which the fold induction at 0.625 µM lay within 1 to 2.

For the compound `CN1CCC(Nc2ccc(C(=O)Nc3ccccc3N)cc2)CC1` [Compound 111, N-(2-aminophenyl)-4-((1-methylpiperidin-4-yl)amino)benzamide], the fold induction at 0.625 µM lay in the range of 1 to 2.

As to `CN1CC[C@H](Nc2ccc(C(=O)Nc3ccccc3N)cc2)C1` [Compound 95, (S)-N-(2-aminophenyl)-4-((1-methylpyrrolidin-3-yl)amino)benzamide], the fold induction at 0.625 µM was 1 to 2.

For the compound `CC1(CN2CCC(Oc3ccc(C(=O)Nc4ccccc4N)cc3)CC2)CC1` [Compound 68, N-(2-aminophenyl)-4-((1-((1-methylcyclopropyl)methyl)piperidin-4-yl)oxy)benzamide dihydrochloride], the fold induction at 0.625 µM fell in the range of 1 to 2.

As for `CC(C)(O)CN1CC[C@H](Oc2ccc(C(=O)Nc3ccccc3N)cc2)C1` [Compound 52, (S)-N-(2-aminophenyl)-4-((1-(2-hydroxy-2-methylpropyl)pyrrolidin-3-yl)oxy)benzamide dihydrochloride], the fold induction at 0.625 µM fell in the range of 1 to 2.

Take `CC1(CN2CC[C@H](Oc3ccc(C(=O)Nc4ccccc4N)cc3)C2)CC1` [Compound 55, (S)-N-(2-aminophenyl)-4-((1-((1-methylcyclopropyl)methyl)pyrrolidin-3-yl)oxy)benzamide dihydrochloride]: the fold induction at 0.625 µM was in the range of 2 to 3.

For the compound `Nc1ccccc1NC(=O)c1ccc(OC2CCCN(CC3CCCCC3)CC2)cc1` (stereo not drawn) [Compound 40, N-(2-aminophenyl)-4-((1-(cyclohexylmethyl)azepan-4-yl)oxy)benzamide dihydrochloride], the fold induction at 0.625 µM is 3 to 5.

Regarding `CC(C)(O)CN1CC(Nc2ccc(C(=O)Nc3ccccc3N)cc2)C1` [Compound 89, N-(2-aminophenyl)-4-((1-(2-hydroxy-2-methylpropyl)azetidin-3-yl)amino)benzamide], the fold induction at 0.625 µM lay in the range of 1 to 2.

`CN1CC(Nc2ccc(C(=O)Nc3ccccc3N)cc2)C1` [Compound 87, N-(2-aminophenyl)-4-((1-methylazetidin-3-yl)amino)benzamide tris(2,2,2-trifluoroacetate)]: the fold induction at 0.625 µM lay within 2 to 3.

In the case of `CC(C)(C)CN1CC[C@@H](Oc2ccc(C(=O)Nc3ccccc3N)cc2)C1` [Compound 61, (R)-N-(2-aminophenyl)-4-((1-neopentylpyrrolidin-3-yl)oxy)benzamide], the fold induction at 0.625 µM was 1 to 2.

For `CC(C)CN1CCCC(Oc2ccc(C(=O)Nc3ccccc3N)cc2)CC1` (stereo not drawn) [Compound 35, N-(2-aminophenyl)-4-((1-isobutylazepan-4-yl)oxy)benzamide dihydrochloride], the fold induction at 0.625 µM was 2 to 3.

Take `Nc1ccccc1NC(=O)c1ccc(O[C@H]2CCNC2)cc1` [Compound 49, (S)-N-(2-aminophenyl)-4-(pyrrolidin-3-yloxy)benzamide hydrochloride]: the fold induction at 0.625 µM lay within 2 to 3.

Regarding `Nc1ccccc1NC(=O)c1ccc(OC2CCCNCC2)cc1` (stereo not drawn) [Compound 33, N-(2-aminophenyl)-4-(azepan-4-yloxy)benzamide hydrochloride], the fold induction at 0.625 µM lay within 2 to 3.

In the case of `Nc1ccccc1NC(=O)c1ccc(NC2CCN(CC3CCCCC3)CC2)cc1` [Compound 114, N-(2-aminophenyl)-4-((1-(cyclohexylmethyl)piperidin-4-yl)amino)benzamide], the fold induction at 0.625 µM is 1 to 2.

As for `Nc1ccccc1NC(=O)c1ccc(OC2CN(C3COC3)C2)cc1` [Compound 126, N-(2-aminophenyl)-4-((1-(oxetan-3-yl)azetidin-3-yl)oxy)benzamide], the fold induction at 0.625 µM was in the range of 1 to 2.

Take `Nc1ccccc1NC(=O)c1ccc(NC2CN(C3COC3)C2)cc1` [Compound 135, N-(2-aminophenyl)-4-((1-(oxetan-3-yl)azetidin-3-yl)amino)benzamide]: the fold induction at 0.625 µM lay within 1 to 2.

Regarding `CC(C)(C)CN1CC(Oc2ccc(C(=O)Nc3ccccc3N)cc2)C1` [Compound 45, dihydrochloride], the fold induction at 0.625 µM was 1 to 2.

For `Nc1ccccc1NC(=O)c1ccc(OC2CCN(CC3CCCCC3)CC2)cc1` [Compound 69, N-(2-aminophenyl)-4-((1-(cyclohexylmethyl)piperidin-4-yl)oxy)benzamide dihydrochloride], the fold induction at 0.625 µM lay within 1 to 2.

For the compound `Nc1ccccc1NC(=O)c1ccc(OC2CCCN(C3COC3)CC2)cc1` (stereo not drawn) [Compound 124, N-(2-aminophenyl)-4-((1-(oxetan-3-yl)azepan-4-yl)oxy)benzamide], the fold induction at 0.625 µM fell in the range of 1 to 2.

Turning to `CC(C)(O)CN1CCC(Oc2ccc(C(=O)Nc3ccccc3N)cc2)CC1` [Compound 2, N-(2-aminophenyl)-4-((1-(2-hydroxy-2-methylpropyl)piperidin-4-yl)oxy)benzamide], the fold induction at 0.625 µM lay in the range of 1 to 2.

`Nc1ccccc1NC(=O)c1ccc(NC2CN(CC3CCCCC3)C2)cc1` [Compound 93, N-(2-aminophenyl)-4-((1-(cyclohexylmethyl)azetidin-3-yl)amino)benzamide]: the fold induction at 0.625 µM lay within 2 to 3.

As for `Nc1ccccc1NC(=O)c1ccc(OC2CN(C3CC3)C2)cc1` [Compound 125, N-(2-aminophenyl)-4-((1-cyclopropylazetidin-3-yl)oxy)benzamide], the fold induction at 0.625 µM fell in the range of 1 to 2.

On to `Nc1ccccc1NC(=O)c1ccc(N[C@H]2CCN(C3COC3)C2)cc1` [Compound 137, (S)-N-(2-aminophenyl)-4-((1-(oxetan-3-yl)pyrrolidin-3-yl)amino)benzamide], for which the fold induction at 0.625 µM is 1 to 2.

For the compound `CC(C)(O)CN1CCCC(Oc2ccc(C(=O)Nc3ccccc3N)cc2)CC1` (stereo not drawn) [Compound 36, N-(2-aminophenyl)-4-((1-(2-hydroxy-2-methylpropyl)azepan-4-yl)oxy)benzamide dihydrochloride], the fold induction at 0.625 µM lay in the range of 1 to 2.

In the case of `CC(C)(C)CN1CC(Nc2ccc(C(=O)Nc3ccccc3N)cc2)C1` [Compound 90, N-(2-aminophenyl)-4-((1-neopentylazetidin-3-yl)amino)benzamide], the fold induction at 0.625 µM lay within 2 to 3.

For `CC(C)CN1CC[C@H](Oc2ccc(C(=O)Nc3ccccc3N)cc2)C1` [Compound 51, (S)-N-(2-aminophenyl)-4-((1-isobutylpyrrolidin-3-yl)oxy)benzamide dihydrochloride], the fold induction at 0.625 µM is 1 to 2.

The experiment is the same for the next values; noted with them: iPSC, 24 h, read-out: FXN mRNA fold induction, compound concentration of 0.625 μM, 24 h incubation.
Consider `Nc1ccccc1NC(=O)c1ccc(NC2CC3CCC(C2)N3)cc1` (stereo not drawn) [Compound 115, 4-((8-azabicyclo[3.2.1]octan-3-yl)amino)-N-(2-aminophenyl)benzamide], for which the fold induction at 0.625 µM fell in the range of 1 to 2.

With `CN1C2CCC1CC(Oc1ccc(C(=O)Nc3ccccc3N)cc1)C2` (stereo not drawn) [Compound 71, N-(2-aminophenyl)-4-((8-methyl-8-azabicyclo[3.2.1]octan-3-yl)oxy)benzamide dihydrochloride], the fold induction at 0.625 µM lay in the range of 1 to 2.

As to `Nc1ccccc1NC(=O)c1ccc(OC2CC3CCC(C2)N3CC2CC2)cc1` (stereo not drawn) [Compound 75, N-(2-aminophenyl)-4-((8-(cyclopropylmethyl)-8-azabicyclo[3.2.1]octan-3-yl)oxy)benzamide dihydrochloride], the fold induction at 0.625 µM lay in the range of 1 to 2.

As for `Nc1ccccc1NC(=O)c1ccc(N(CC2CC2)C2CCN(CC3CC3)CC2)cc1` [Compound 28, N-(2-aminophenyl)-4-((cyclopropylmethyl)(1-(cyclopropylmethyl)piperidin-4-yl)amino)benzamide Trihydrochloride], the fold induction at 0.625 µM was 2 to 3.

With `CN(c1ccc(C(=O)Nc2ccccc2N)cc1)C1CCN(CC(C)(C)O)CC1` [Compound 6, N-(2-aminophenyl)-4-((1-(2-hydroxy-2-methylpropyl)piperidin-4-yl)(methyl)amino) benzamide], the fold induction at 0.625 µM lay in the range of 2 to 3.

For the origin of these results see US10308608B2, “Histone deacetylase inhibitors” (BIOMARIN PHARMACEUTICAL INC., priority 2015, dated 2019).
